# Experiments:
# αvβ integrins = assay: Immunostaining of αvβ integrins in IVD sections of aged mice; format: in vivo, mouse; settings: 18-month old mice; only αvβ6 among αvβ3, αvβ5, αvβ6, β8
# Protocol: For immunocytochemical staining, we incubated GFP labeled NP cells co-stained with primary antibody to rabbit PTH1R PRB-635P (Covance, 1:100) for 1 h and subsequently stained with secondary antibodies conjugated with fluorescence at room temperature. At the time of euthanasia, we dissected and fixed the lumbar vertebral spine in 10% buffered formalin for 48 h, decalcified them in 10% EDTA (pH 7.4) for 14-21 days and embedded them in paraffin or optimal cutting temperature (OCT) compound (Sakura Finetek). Fourmicrometer-thick coronal-oriented sections of the L1-L6 spine were processed for safranin O and fast green staining. Sections for immunostaining was performed using a standard protocol and incubated with primary antibodies to rabbit ACAN (Abcam, 1:100), CCN2 (Abcam, 1:100), integrin β8 (Abcam, 1:200), pCREB (Abcam, 1:100) and PTH1R PRB-635P (Covance, 1:100), mouse pSmad2/3 (Santa Cruz, 1:100), integrin αvβ6 (Millipore, 1:100), integrin αvβ3 (Bioss, 1:100,), integrin αvβ5 (Bioss, 1:100) at 4° C. overnight. For immunohistochemical staining, a horse radish peroxidase-streptavidin detection system (Dako) was subsequently used to detect the immunoactivity, followed by counterstaining with hematoxylin (Sigma-Aldrich). For immunofluorescent assay, the slides were incubated with secondary antibodies conjugated with fluorescence at room temperature for 1 h while avoiding light. […]
# PTH1R = biological target: T1, PTH1R (Mus musculus, UniProt P41593); assay: Primary cilia visualization and co-localization in NP cells; format: cell-based
# T1 construct: endogenous in cells; host or cells: primary mouse nucleus pulposus (NP) cells isolated from intervertebral discs of 15-day old male mice
# T1 sequence (P41593 27-591): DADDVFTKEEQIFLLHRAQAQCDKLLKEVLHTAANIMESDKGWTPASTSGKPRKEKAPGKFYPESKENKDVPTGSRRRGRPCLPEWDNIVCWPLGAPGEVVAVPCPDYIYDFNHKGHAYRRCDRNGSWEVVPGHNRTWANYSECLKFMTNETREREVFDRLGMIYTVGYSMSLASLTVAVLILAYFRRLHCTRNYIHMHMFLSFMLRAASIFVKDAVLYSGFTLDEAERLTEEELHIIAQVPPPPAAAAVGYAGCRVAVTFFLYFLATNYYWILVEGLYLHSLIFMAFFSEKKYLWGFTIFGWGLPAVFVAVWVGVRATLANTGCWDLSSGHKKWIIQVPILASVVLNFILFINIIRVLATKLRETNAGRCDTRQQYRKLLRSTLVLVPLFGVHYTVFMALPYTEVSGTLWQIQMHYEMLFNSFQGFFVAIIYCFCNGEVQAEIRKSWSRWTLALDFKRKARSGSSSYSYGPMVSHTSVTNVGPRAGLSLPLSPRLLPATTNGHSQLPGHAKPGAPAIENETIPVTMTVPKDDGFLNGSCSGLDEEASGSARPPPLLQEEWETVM
# Protocol: The localization of PTH signaling components within NP cells was investigated through immunocytochemistry after 48 hours of serum starvation (DMEM, 0.5% FBS, 1% P/S). Cells were treated with PTH (recombinant human PTH, […], Bachem Calif., Inc. King of Prussia, Pa., USA.) or shear stress (1 dyn/cm^2) with times of exposure for 30 minutes, fixed and stained for acetylated α-tubulin of primary cilia, PTH1R (Abcam, 1:100) and pCREP (Abcam, 1:500). Coverslips were mounted with Fluoroshield-DAPI. All cells were imaged using a Zeiss LSM710 META Confocal Laser Scanning microscope fitted with a 63× objective. Region of interest were selected manually using ImageJ software. The intensity profiles along the cilia have been performed by tracing a line across the length of the primary cilia and measuring intensity along this line using ImageJ software. Average intensities in the ciliary region, were measured on at least 30 ciliated cells per condition.
# NP tissue = assay: iPTH in PTH1R KO mice: Western blot of NP tissue; format: in vivo, mouse
# Protocol: The 11 month-old PTH1R^+/+ and PTH1R^−/− male mice were randomized into four groups: PTH1R^+/++PTH (1-34), PTH1R^+/++Vehicle, PTH1R^−/−+PTH (1-34) and PTH1R^−/−+Vehicle groups (n=8 per group). The 11 month-olds IFT88^+/+ and IFT88^−/− male mice were randomized into four groups: IFT88^+/++PTH (1-34), IFT88^+/++Vehicle, IFT88^−/−+PTH (1-34) and IFT88^−/−+Vehicle groups (n=8 per group). Mice were subcutaneously injected with either PTH (1-34) or vehicle (1 mM acetic acid in phosphate buffered saline (PBS) with equivalent volume of PTH) daily, 5 days per week, and all mice were sacrificed 4 weeks after treatment with PTH (1-34)/vehicle.
# Western blot analyses were conducted on the protein lysates from in vitro cultured NP cells or NP tissues from mice at specific time points after PTH (1-34) treatment and human at different ages with lumbar disc degeneration. The protein extract was centrifuged, the concentration of supernatant evaluated by DC protein assay (Bio-Rad Laboratories), and then separated by SDS-PAGE and blotted on a polyvinylidene fluoride membrane (Bio-Rad Laboratories). Following incubation in specific antibodies, we detected proteins using an enhanced chemiluminescence kit (Amersham Biosciences). We used specific antibodies recognizing rabbit CTGF (CCN2) (Abcam, 1:1000), Aggrecan (ACAN) (Abcan, 1:1000), p-Smad2 (Cell Signaling Technology Inc., 1:1000), Smad2 (Cell Signaling Technology Inc., 1:1000), GAPDH (Cell Signaling Technology Inc., 1:1000), CREB (Abcam, 1:2500), pCREB (Abcam, 1:2500), PTH1R PRB-635P (Covance, 1:100), PTH1R PRB-640P (Covance, 1:500) and goat integrin β6 (Santa Cruz, 1:500) to examine the protein concentrations in the lysates. Co-immunoprecipitation analyses were conducted on the nuclear and cytoplasmic protein extraction using NE-PER Nuclear and Cytoplasmic Extraction Kit (Pierce Thermo Scientific, 78833) from in vitro cultured NP cells treated with PTH (1-34) or vehicle.
compound,measurement,setting,value
"CC[C@H](C)[C@H](NC(=O)[C@H](CCC(=O)O)NC(=O)[C@H](CO)NC(=O)[C@@H](NC(=O)[C@@H](N)CO)C(C)C)C(=O)N[C@@H](CCC(N)=O)C(=O)N[C@@H](CC(C)C)C(=O)N[C@@H](CCSC)C(=O)N[C@@H](Cc1cnc[nH]1)C(=O)N[C@@H](CC(N)=O)C(=O)N[C@@H](CC(C)C)C(=O)NCC(=O)N[C@@H](CCCCN)C(=O)N[C@@H](Cc1cnc[nH]1)C(=O)N[C@@H](CC(C)C)C(=O)N[C@@H](CC(N)=O)C(=O)N[C@@H](CO)C(=O)N[C@@H](CCSC)C(=O)N[C@@H](CCC(=O)O)C(=O)N[C@@H](CCCN=C(N)N)C(=O)N[C@H](C(=O)N[C@@H](CCC(=O)O)C(=O)N[C@@H](Cc1c[nH]c2ccccc12)C(=O)N[C@@H](CC(C)C)C(=O)N[C@@H](CCCN=C(N)N)C(=O)N[C@@H](CCCCN)C(=O)N[C@@H](CCCCN)C(=O)N[C@@H](CC(C)C)C(=O)N[C@@H](CCC(N)=O)C(=O)N[C@@H](CC(=O)O)C(=O)N[C@H](C(=O)N[C@@H](Cc1cnc[nH]1)C(=O)N[C@@H](CC(N)=O)C(=O)N[C@@H](Cc1ccccc1)C(=O)O)C(C)C)C(C)C [PTH (1-34), teriparatide]",level of αvβ6 integrin,αvβ integrins,significantly increased
same,start of translocation of PTH1R to cilia,PTH1R,10 min
same,translocation of PTH1R to cilia,PTH1R,stimulated translocation of PTH1R to cilia significantly
same,pCREB in cilia,PTH1R; co-immunostaining with acetylated tubulin,increased
same,PTH-enhanced transport of PTH1R to cilia,PTH1R; knockdown of pallidin with siRNA,blocked
same,PTH induced increase in level of ACAN,NP tissue,diminished
same,PTH induced increase in level of CCN2,NP tissue,diminished
same,PTH induced increase in level of pSmad2,NP tissue,diminished
